Results published in patent EP4722207A1, “OXOISOINDOLINYL-SUBSTITUTED TETRAHYDROPYRIMIDINEDIONE DERIVATIVE AND USE THEREOF” (Gluetacs Therapeutics (Shanghai) Co., Ltd., priority 2023, dated 2024).

Experiments:
Assay type in all cases: cell-based
Conditions in all cases: compounds at 50 nM and 500 nM, 24 hours
WEE1 = target: T1, WEE1 (Homo sapiens, UniProt P30291+Q96SW2); experiment: Western-blot assay, substrate protein degradation in hPBMCs: WEE1
T1 construct: effects of the compounds of the present disclosure on the expression of target proteins in cells; endogenous in cells; host or cells: human PBMCs (hPBMCs)

IKZF1 = target: T2, IKZF1 (Homo sapiens, UniProt Q13422+Q96SW2); experiment: Western-blot assay, substrate protein degradation in hPBMCs: IKZF1
T2 construct: effects of the compounds of the present disclosure on the expression of target proteins in cells; endogenous in cells; host or cells: human PBMCs (hPBMCs)

IKZF2 = target: T3, IKZF2 (Homo sapiens, UniProt Q96SW2+Q9UKS7); experiment: Western-blot assay, substrate protein degradation in hPBMCs: IKZF2
T3 construct: effects of the compounds of the present disclosure on the expression of target proteins in cells; endogenous in cells; host or cells: human PBMCs (hPBMCs)

IKZF3 = target: T4, IKZF3 (Homo sapiens, UniProt Q96SW2+Q9UKT9); experiment: Western-blot assay, substrate protein degradation in hPBMCs: IKZF3
T4 construct: effects of the compounds of the present disclosure on the expression of target proteins in cells; endogenous in cells; host or cells: human PBMCs (hPBMCs)

CK1α = target: T5, CK1α (Homo sapiens, UniProt P48729+Q96SW2); experiment: Western-blot assay, substrate protein degradation in hPBMCs: CK1α
T5 construct: effects of the compounds of the present disclosure on the expression of target proteins in cells; endogenous in cells; host or cells: human PBMCs (hPBMCs)

GSPT1 = target: T6, GSPT1 (Homo sapiens, UniProt P15170+Q96SW2); experiment: Western-blot assay, substrate protein degradation in hPBMCs: GSPT1
T6 construct: effects of the compounds of the present disclosure on the expression of target proteins in cells; endogenous in cells; host or cells: human PBMCs (hPBMCs)
T6 sequence (P15170 whole entry): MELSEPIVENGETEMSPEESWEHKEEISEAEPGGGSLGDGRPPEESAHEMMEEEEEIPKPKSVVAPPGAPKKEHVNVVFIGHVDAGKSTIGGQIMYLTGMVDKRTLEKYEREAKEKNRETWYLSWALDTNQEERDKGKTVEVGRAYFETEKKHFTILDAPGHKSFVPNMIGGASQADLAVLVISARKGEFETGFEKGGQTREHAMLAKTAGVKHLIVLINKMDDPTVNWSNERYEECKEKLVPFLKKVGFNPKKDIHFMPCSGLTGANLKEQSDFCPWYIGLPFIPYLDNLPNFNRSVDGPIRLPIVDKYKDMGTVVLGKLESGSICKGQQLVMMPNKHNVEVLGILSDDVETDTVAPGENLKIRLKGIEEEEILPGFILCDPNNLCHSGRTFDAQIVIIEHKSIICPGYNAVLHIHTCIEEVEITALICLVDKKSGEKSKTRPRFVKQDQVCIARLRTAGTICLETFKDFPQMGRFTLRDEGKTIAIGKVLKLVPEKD
T6 sequence (Q96SW2 whole entry): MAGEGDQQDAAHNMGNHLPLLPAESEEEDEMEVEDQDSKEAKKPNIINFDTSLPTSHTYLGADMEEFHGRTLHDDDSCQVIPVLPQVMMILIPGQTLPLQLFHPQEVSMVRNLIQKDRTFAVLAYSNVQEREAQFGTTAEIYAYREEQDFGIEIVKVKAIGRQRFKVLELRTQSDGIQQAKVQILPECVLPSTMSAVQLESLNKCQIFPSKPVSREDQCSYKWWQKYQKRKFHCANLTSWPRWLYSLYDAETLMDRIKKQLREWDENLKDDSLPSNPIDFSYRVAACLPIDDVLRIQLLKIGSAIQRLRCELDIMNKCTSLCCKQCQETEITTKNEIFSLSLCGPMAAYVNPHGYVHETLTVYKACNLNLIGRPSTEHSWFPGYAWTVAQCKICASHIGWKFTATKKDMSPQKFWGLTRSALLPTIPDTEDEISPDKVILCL
T6 sequence (Q16531 whole entry partner): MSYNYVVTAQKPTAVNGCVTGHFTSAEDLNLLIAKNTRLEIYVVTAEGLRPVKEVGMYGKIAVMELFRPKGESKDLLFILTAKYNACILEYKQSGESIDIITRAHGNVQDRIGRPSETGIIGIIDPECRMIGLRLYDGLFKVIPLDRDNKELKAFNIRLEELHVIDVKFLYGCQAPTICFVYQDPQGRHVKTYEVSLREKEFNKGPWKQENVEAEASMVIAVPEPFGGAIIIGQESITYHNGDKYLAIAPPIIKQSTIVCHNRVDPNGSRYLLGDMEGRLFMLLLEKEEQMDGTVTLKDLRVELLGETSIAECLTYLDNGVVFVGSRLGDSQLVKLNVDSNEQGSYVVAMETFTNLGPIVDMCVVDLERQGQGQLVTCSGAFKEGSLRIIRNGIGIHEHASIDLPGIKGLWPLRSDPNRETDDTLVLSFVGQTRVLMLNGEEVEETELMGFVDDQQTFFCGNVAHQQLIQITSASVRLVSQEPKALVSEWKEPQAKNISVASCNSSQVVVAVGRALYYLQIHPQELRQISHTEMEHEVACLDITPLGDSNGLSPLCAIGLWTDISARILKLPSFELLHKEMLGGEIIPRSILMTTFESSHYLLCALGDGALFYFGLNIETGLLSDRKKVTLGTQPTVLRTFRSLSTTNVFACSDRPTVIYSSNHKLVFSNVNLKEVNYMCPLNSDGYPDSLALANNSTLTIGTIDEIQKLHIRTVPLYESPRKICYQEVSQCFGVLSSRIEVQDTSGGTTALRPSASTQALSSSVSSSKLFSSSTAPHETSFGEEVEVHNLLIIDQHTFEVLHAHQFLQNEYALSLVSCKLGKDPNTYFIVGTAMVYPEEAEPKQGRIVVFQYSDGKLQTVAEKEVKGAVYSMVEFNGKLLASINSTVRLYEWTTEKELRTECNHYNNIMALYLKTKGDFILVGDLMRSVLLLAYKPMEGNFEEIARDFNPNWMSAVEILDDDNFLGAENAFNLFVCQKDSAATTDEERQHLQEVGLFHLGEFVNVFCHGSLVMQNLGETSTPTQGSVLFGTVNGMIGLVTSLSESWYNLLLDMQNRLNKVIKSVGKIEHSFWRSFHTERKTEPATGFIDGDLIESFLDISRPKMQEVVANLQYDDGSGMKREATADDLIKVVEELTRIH

T4 sequence (Q9UKT9 whole entry): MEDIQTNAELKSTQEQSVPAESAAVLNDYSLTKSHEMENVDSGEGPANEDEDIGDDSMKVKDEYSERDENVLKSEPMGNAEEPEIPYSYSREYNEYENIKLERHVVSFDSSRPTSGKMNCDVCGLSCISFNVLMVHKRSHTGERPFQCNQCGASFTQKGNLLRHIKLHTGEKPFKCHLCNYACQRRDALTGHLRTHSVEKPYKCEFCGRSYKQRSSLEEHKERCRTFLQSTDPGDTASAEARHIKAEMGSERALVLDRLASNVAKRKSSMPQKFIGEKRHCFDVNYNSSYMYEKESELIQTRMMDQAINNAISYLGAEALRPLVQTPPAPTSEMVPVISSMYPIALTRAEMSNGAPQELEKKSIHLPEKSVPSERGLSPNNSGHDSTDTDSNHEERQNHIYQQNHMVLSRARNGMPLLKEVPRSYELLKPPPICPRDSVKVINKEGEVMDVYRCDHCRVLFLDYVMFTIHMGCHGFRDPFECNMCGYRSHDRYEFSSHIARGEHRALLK
T4 sequence (Q96SW2 whole entry): as the sequence (Q96SW2 whole entry) above
T4 sequence (Q16531 whole entry partner): as the sequence (Q16531 whole entry partner) above
T2 sequence (Q13422 whole entry): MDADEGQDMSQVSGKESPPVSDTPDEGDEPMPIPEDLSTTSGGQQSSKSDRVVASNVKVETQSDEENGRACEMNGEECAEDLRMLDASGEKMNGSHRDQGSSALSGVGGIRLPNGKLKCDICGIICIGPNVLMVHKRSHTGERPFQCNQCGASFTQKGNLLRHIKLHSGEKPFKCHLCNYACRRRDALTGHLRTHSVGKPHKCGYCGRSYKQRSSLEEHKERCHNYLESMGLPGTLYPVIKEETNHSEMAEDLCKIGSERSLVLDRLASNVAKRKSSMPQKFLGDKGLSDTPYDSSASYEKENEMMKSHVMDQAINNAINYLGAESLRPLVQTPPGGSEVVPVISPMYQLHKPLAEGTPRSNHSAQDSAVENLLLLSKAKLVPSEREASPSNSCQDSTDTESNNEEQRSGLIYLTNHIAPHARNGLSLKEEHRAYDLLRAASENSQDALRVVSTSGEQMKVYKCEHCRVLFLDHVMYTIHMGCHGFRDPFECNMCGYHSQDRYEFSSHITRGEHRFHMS
T2 sequence (Q96SW2 whole entry): as the sequence (Q96SW2 whole entry) above
T2 sequence (Q16531 whole entry partner): as the sequence (Q16531 whole entry partner) above
T5 sequence (P48729 whole entry): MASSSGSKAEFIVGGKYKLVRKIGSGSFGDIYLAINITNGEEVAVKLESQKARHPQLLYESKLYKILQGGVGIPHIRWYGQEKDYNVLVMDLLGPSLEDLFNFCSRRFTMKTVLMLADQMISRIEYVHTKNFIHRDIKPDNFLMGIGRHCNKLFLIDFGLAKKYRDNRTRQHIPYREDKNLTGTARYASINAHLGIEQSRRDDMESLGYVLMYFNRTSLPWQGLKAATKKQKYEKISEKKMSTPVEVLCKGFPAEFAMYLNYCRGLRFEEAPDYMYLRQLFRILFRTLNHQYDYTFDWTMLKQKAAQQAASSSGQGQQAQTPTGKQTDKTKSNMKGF
T5 sequence (Q96SW2 whole entry): as the sequence (Q96SW2 whole entry) above
T5 sequence (Q16531 whole entry partner): as the sequence (Q16531 whole entry partner) above
T3 sequence (Q9UKS7 whole entry): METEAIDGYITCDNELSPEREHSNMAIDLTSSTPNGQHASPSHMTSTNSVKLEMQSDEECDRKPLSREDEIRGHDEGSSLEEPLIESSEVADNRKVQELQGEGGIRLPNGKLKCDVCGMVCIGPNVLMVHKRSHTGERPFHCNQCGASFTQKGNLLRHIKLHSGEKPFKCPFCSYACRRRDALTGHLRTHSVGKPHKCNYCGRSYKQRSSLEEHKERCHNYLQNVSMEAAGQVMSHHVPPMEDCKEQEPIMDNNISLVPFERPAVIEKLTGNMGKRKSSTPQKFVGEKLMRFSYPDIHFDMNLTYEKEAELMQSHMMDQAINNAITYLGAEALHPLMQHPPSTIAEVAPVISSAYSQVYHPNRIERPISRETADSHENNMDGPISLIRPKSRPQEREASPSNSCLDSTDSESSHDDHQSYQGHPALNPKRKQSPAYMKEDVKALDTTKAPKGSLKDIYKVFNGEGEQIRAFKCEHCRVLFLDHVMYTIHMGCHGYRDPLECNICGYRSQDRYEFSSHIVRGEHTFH
T3 sequence (Q96SW2 whole entry): as the sequence (Q96SW2 whole entry) above
T3 sequence (Q16531 whole entry partner): as the sequence (Q16531 whole entry partner) above

SMILES | WEE1 substrate protein remaining % (WEE1) | IKZF1 substrate protein remaining % (IKZF1) | IKZF2 substrate protein remaining % (IKZF2) | IKZF3 substrate protein remaining % (IKZF3) | CK1α substrate protein remaining % (CK1α) | GSPT1 substrate protein remaining % (GSPT1)
O=C1CCN(N2C(=O)c3ccc(CN4CCN(c5nccc(F)c5F)CC4)cc3C2=O)C(=O)N1 [GT-07162, 5-((4-(3,4-difluoropyridin-2-yl)piperazin-1-yl)methyl)-2-(2,4-dioxotetrahydropyrimidin-1(2H)-yl)isoindoline-1,3-dione] | B ("B" is defined as 80%< substrate protein remaining %≤ 100%) | B ("B" is defined as 80%< substrate protein remaining %≤ 100%) | A ("A" is defined as 0% ≤ substrate protein remaining % ≤ 80%) | B ("B" is defined as 80%< substrate protein remaining %≤ 100%) | A ("A" is defined as 0% ≤ substrate protein remaining % ≤ 80%) | A ("A" is defined as 0% ≤ substrate protein remaining % ≤ 80%)
O=C1CCN(N2C(=O)c3ccc(CN4CCN(c5ccncc5Br)CC4)cc3C2=O)C(=O)N1 [GT-07163, 5-((4-(3-bromopyridin-4-yl)piperazin-1-yl)methyl)-2-(2,4-dioxotetrahydropyrimidin-1(2H)-yl)isoindoline-1,3-dione] | B ("B" is defined as 80%< substrate protein remaining %≤ 100%) | B ("B" is defined as 80%< substrate protein remaining %≤ 100%) | A ("A" is defined as 0% ≤ substrate protein remaining % ≤ 80%) | B ("B" is defined as 80%< substrate protein remaining %≤ 100%) | B ("B" is defined as 80%< substrate protein remaining %≤ 100%) | A ("A" is defined as 0% ≤ substrate protein remaining % ≤ 80%)
O=C1CCN(N2C(=O)c3ccc(CN4CCN(c5ccncc5F)CC4)cc3C2=O)C(=O)N1 [GT-07164, 2-(2,4-dioxotetrahydropyrimidin-1(2H)-yl)-5-((4-(3-fluoropyridin-4-yl)piperazin-1-yl)methyl)isoindoline-1,3-dione] | B ("B" is defined as 80%< substrate protein remaining %≤ 100%) | B ("B" is defined as 80%< substrate protein remaining %≤ 100%) | A ("A" is defined as 0% ≤ substrate protein remaining % ≤ 80%) | B ("B" is defined as 80%< substrate protein remaining %≤ 100%) | B ("B" is defined as 80%< substrate protein remaining %≤ 100%) | A ("A" is defined as 0% ≤ substrate protein remaining % ≤ 80%)
O=C1CCN(N2C(=O)c3ccc(CN4CCN(c5ccncc5Cl)CC4)cc3C2=O)C(=O)N1 [GT-07165, 5-((4-(3-chloropyridin-4-yl)piperazin-1-yl)methyl)-2-(2,4-dioxotetrahydropyrimidin-1(2H)-yl)isoindoline-1,3-dione] | B ("B" is defined as 80%< substrate protein remaining %≤ 100%) | B ("B" is defined as 80%< substrate protein remaining %≤ 100%) | A ("A" is defined as 0% ≤ substrate protein remaining % ≤ 80%) | B ("B" is defined as 80%< substrate protein remaining %≤ 100%) | B ("B" is defined as 80%< substrate protein remaining %≤ 100%) | A ("A" is defined as 0% ≤ substrate protein remaining % ≤ 80%)
O=C1CCN(N2C(=O)c3ccc(CN4CCN(c5ccnc(Cl)c5F)CC4)cc3C2=O)C(=O)N1 [GT-07166, 5-((4-(2-chloro-3-fluoropyridin-4-yl)piperazin-1-yl)methyl)-2-(2,4-dioxotetrahydropyrimidin-1(2H)-yl)isoindoline-1,3-dione] | B ("B" is defined as 80%< substrate protein remaining %≤ 100%) | B ("B" is defined as 80%< substrate protein remaining %≤ 100%) | A ("A" is defined as 0% ≤ substrate protein remaining % ≤ 80%) | B ("B" is defined as 80%< substrate protein remaining %≤ 100%) | B ("B" is defined as 80%< substrate protein remaining %≤ 100%) | A ("A" is defined as 0% ≤ substrate protein remaining % ≤ 80%)
O=C1CCN(N2C(=O)c3ccc(CN4CCN(c5ccnc(Br)c5F)CC4)cc3C2=O)C(=O)N1 [GT-07167, 5-((4-(2-bromo-3-fluoropyridin-4-yl)piperazin-1-yl)methyl)-2-(2,4-dioxotetrahydropyrimidin-1(2H)-yl)isoindoline-1,3-dione] | B ("B" is defined as 80%< substrate protein remaining %≤ 100%) | B ("B" is defined as 80%< substrate protein remaining %≤ 100%) | A ("A" is defined as 0% ≤ substrate protein remaining % ≤ 80%) | B ("B" is defined as 80%< substrate protein remaining %≤ 100%) | B ("B" is defined as 80%< substrate protein remaining %≤ 100%) | A ("A" is defined as 0% ≤ substrate protein remaining % ≤ 80%)
O=C1CCN(N2C(=O)c3ccc(CN4CCN(c5ccnc(Cl)c5Br)CC4)cc3C2=O)C(=O)N1 [GT-07168, 5-((4-(3-bromo-2-chloropyridin-4-yl)piperazin-1-yl)methyl)-2-(2,4-dioxotetrahydropyrimidin-1(2H)-yl)isoindoline-1,3-dione] | B ("B" is defined as 80%< substrate protein remaining %≤ 100%) | B ("B" is defined as 80%< substrate protein remaining %≤ 100%) | A ("A" is defined as 0% ≤ substrate protein remaining % ≤ 80%) | B ("B" is defined as 80%< substrate protein remaining %≤ 100%) | B ("B" is defined as 80%< substrate protein remaining %≤ 100%) | A ("A" is defined as 0% ≤ substrate protein remaining % ≤ 80%)
O=C1CCN(N2Cc3cc(CN4CCN(c5ccnc(Cl)c5Cl)CC4)ccc3C2=O)C(=O)N1 [GT-07169, 1-(5-((4-(2,3-dichloropyridin-4-yl)piperazin-1-yl)methyl)-1-oxoisoindolin-2-yl)dihydropyrimidine-2,4(1H,3H)-dione] | A ("A" is defined as 0% ≤ substrate protein remaining % ≤ 80%) | B ("B" is defined as 80%< substrate protein remaining %≤ 100%) | B ("B" is defined as 80%< substrate protein remaining %≤ 100%) | B ("B" is defined as 80%< substrate protein remaining %≤ 100%) | B ("B" is defined as 80%< substrate protein remaining %≤ 100%) | B ("B" is defined as 80%< substrate protein remaining %≤ 100%)
O=C1CCN(N2Cc3cc(CN4CCN(c5c(Cl)cncc5Br)CC4)ccc3C2=O)C(=O)N1 [GT-07170, 1-(5-((4-(3-bromo-5-chloropyridin-4-yl)piperazin-1-yl)methyl)-1-oxoisoindolin-2-yl)dihydropyrimidine-2,4(1H,3H)-dione] | A ("A" is defined as 0% ≤ substrate protein remaining % ≤ 80%) | A ("A" is defined as 0% ≤ substrate protein remaining % ≤ 80%) | B ("B" is defined as 80%< substrate protein remaining %≤ 100%) | B ("B" is defined as 80%< substrate protein remaining %≤ 100%) | B ("B" is defined as 80%< substrate protein remaining %≤ 100%) | B ("B" is defined as 80%< substrate protein remaining %≤ 100%)
O=C1CCN(N2Cc3cc(CN4CCN(c5c(F)cncc5Cl)CC4)ccc3C2=O)C(=O)N1 [GT-07171] | A ("A" is defined as 0% ≤ substrate protein remaining % ≤ 80%) | B ("B" is defined as 80%< substrate protein remaining %≤ 100%) | B ("B" is defined as 80%< substrate protein remaining %≤ 100%) | B ("B" is defined as 80%< substrate protein remaining %≤ 100%) | B ("B" is defined as 80%< substrate protein remaining %≤ 100%) | B ("B" is defined as 80%< substrate protein remaining %≤ 100%)
O=C1CCN(N2C(=O)c3ccc(CN4CCN(c5ncccn5)CC4)cc3C2=O)C(=O)N1 [GT-07285, 2-(2,4-dioxotetrahydropyrimidin-1(2H)-yl)-5-((4-(pyrimidin-2-yl)piperazin-1-yl)methyl)isoindoline-1,3-dione] | A ("A" is defined as 0% ≤ substrate protein remaining % ≤ 80%) | A ("A" is defined as 0% ≤ substrate protein remaining % ≤ 80%) | B ("B" is defined as 80%< substrate protein remaining %≤ 100%) | B ("B" is defined as 80%< substrate protein remaining %≤ 100%) | B ("B" is defined as 80%< substrate protein remaining %≤ 100%) | B ("B" is defined as 80%< substrate protein remaining %≤ 100%)
